# Results taken from patent US20050215544A1, “Methods of treating HIV infection” (priority 2004, published 2005).
# How the values were obtained:
# HIV-1 LAI [1] = test: microbe, parasite or virus in culture; settings: Human immunodeficiency virus 1, MT2, 120 h
# Method: (§1) Virus and cell lines. The T-cell lines, MT-2 and PM-1 were obtained through the AIDS Research and Reference Reagent Program, NIAID, and were contributed by Dr. D. Richman and Dr. R. Gallo, respectively. Both cell lines were cultured in RPMI 1640 medium supplemented with 10% fetal bovine serum, 2 mM L-glutamine and sub-cultured twice a week. The LAI strain of HIV-1 was obtained from the Fred Hutchinson Cancer Research Center, and the Bal strain was from NIH. Both virus stocks were amplified and titered in MT-2 cells (LAI) and PM-1 cells (Bal) using a virus infectivity assay.
# (§2) Drug Susceptibility and Cytotoxicity Assays. For drug susceptibility assays, MT-2 cells were infected with HIV-1 LAI (or PM-1 cells with HIV-1 Bal) at an MOI of 0.005, and seeded into 96-well microtiter plates ([…] cells/ml) containing serial dilutions of test compounds. […] Each drug ratio consisted of an array of 3-fold serial dilutions, and was performed in quadruplicate. The plates were incubated at 37° C./5% CO2. The MT-2 cells infected with HIV-1 LAI were incubated for 5 days. On day-five post-infection, 20 μl from each well was harvested and quantitated by a reverse transcriptase (RT) assay, or in samples involving non-nucleoside RT inhibitors, an MTS assay. The PM-1 cells infected with HIV-1 Bal and used for studying the combinations with CCR5 inhibitors were incubated for six days. On day-six post-infection, 20 μl from each well was harvested, 20- and 50-fold diluted and quantitated by p24 assay. Cytotoxicity assays were performed using uninfected cells, exposed to the same drug combinations, and incubated for six days. Cell viability was determined by an MTS assay. The CC50 values were calculated by using the exponential form of the median effect equation as mentioned below for calculation of EC50.
# (§3) In this equation, Fa stands for “fraction affected,” and represents the fraction of the viral load that has been inactivated. […] ED50 is drug concentration that is expected to reduce the amount of virus by 50%, and m is a parameter that reflects the slope of the concentration-response curve.
# In carrying out the combination experiments below, the EC50 for Compound 1 and each comparator compound was determined during the course of each study, and used in the subsequent data analysis.
# HIV-1 LAI [2] = test: Two-drug combination antiviral assay with Compound 1 (combination indices, Chou and Rideout); type: cell-based; settings: combination with Compound 1; for Combination Indices at 50% HIV Inhibition (Confidence Interval) / Combination Indices at 75% HIV Inhibition (Confidence Interval) / Combination Indices at 90% HIV Inhibition (Confidence Interval): 95% CI in parenthesis; for Overall Result of two-drug combination: all ratios and inhibition levels
# Method: as §1, §2
# Analysis of Drug Combination Effects. For determination of CI values, drugs were diluted in a fixed ratio and multiple ratios were analyzed. The drug serial dilutions spanned a range of concentrations near the EC50 value of each compound, so that equivalent antiviral activities could be compared. Concentration-response curves were estimated for each individual drug and every combination using the median-effect equation. The equation was fit using a nonlinear regression routine (Proc Nlin) in PC SAS version 8.01 (SAS Institute Inc., SAS Version 8.01, Cary, NC: SAS Institute Inc., 1990).
# as §3
# To assess antiviral effects of different drug combination treatments, combination indices (CIs) were calculated according to Chou and Rideout. The combination index was computed as CI=[D]1/[Dm]1+[D]2/[Dm]2
# In this equation [Dm]1 and [Dm]2 are the concentrations of drugs that would individually produce a specific level of effect, while [D]1 and [D]2 are the concentrations of drugs in combination that would produce the same level of effect.
# Theoretically, additivity is implied if the CI is equal to one, synergy if the CI is less than one, and antagonism if the CI is greater than one. […] At best, we can construct a range that contains the likely values for the CI, given the noise in the data. In this report, these ranges are reported in parentheses next to each point estimate of the CI. […] If the range fell entirely above 1.0, we would infer antagonistic behavior. If the range were to include 1.0, we would infer additivity.
# [3] = EC50 ratio 1:1 (Compound 1 to comparator)
# [4] = EC50 ratio 1:2.5 (Compound 1 to comparator)
# [5] = EC50 ratio 2.5:1 (Compound 1 to comparator)
SMILES,EC50 (HIV-1 LAI [1]) [nM],Combination Indices at 50% HIV Inhibition (Confidence Interval) (HIV-1 LAI [2]; [3]),Combination Indices at 75% HIV Inhibition (Confidence Interval) (HIV-1 LAI [2]; [3]),Combination Indices at 90% HIV Inhibition (Confidence Interval) (HIV-1 LAI [2]; [3]),Combination Indices at 50% HIV Inhibition (Confidence Interval) (HIV-1 LAI [2]; [4]),Combination Indices at 75% HIV Inhibition (Confidence Interval) (HIV-1 LAI [2]; [4]),Combination Indices at 90% HIV Inhibition (Confidence Interval) (HIV-1 LAI [2]; [4]),Combination Indices at 50% HIV Inhibition (Confidence Interval) (HIV-1 LAI [2]; [5]),Combination Indices at 75% HIV Inhibition (Confidence Interval) (HIV-1 LAI [2]; [5]),Combination Indices at 90% HIV Inhibition (Confidence Interval) (HIV-1 LAI [2]; [5]),Overall Result of two-drug combination (HIV-1 LAI [2]),Overall Result of two-drug combination (HIV-1 LAI [2]; listed as efavirenz)
Nc1nc(=O)n([C@@H]2CS[C@H](CO)O2)cc1F [Emtricitabine],36,"0.56 (0.49, 0.62)","0.39 (0.34, 0.45)","0.28 (0.22, 0.33)","0.45 (0.38, 0.51)","0.62 (0.50, 0.74)","0.86 (0.59, 1.14)","0.22 (0.20, 0.24)","0.32 (0.28, 0.37)","0.48 (0.38, 0.58)",Synergistic,
O=c1[nH]cnc2c1ncn2[C@H]1CC[C@@H](CO)O1 [Didanosine],644,"0.91 (0.74, 1.09)","0.88 (0.65, 1.11)","0.88 (0.52, 1.24)","0.22 (0.19, 0.25)","0.18 (0.14, 0.22)","0.16 (0.10, 0.21)","1.02 (0.83, 1.22)","0.96 (0.70, 1.21)","0.91 (0.53, 1.29)",Additive-,
COC(=O)N[C@H](C(=O)N[C@@H](Cc1ccccc1)[C@@H](O)CN(Cc1ccc(-c2ccccn2)cc1)NC(=O)[C@@H](NC(=O)OC)C(C)(C)C)C(C)(C)C [Atazanavir],0.5,"0.76 (0.64, 0.89)","0.89 (0.69, 1.10)","1.07 (0.68, 1.46)","0.28 (0.25, 0.31)","0.38 (0.33, 0.44)","0.54 (0.42, 0.66)","0.08 (0.07, 0.09)","0.14 (0.12, 0.17)","0.25 (0.18, 0.33)",Additive-,
Cc1cn([C@H]2C[C@H](N=[N+]=[N-])[C@@H](CO)O2)c(=O)[nH]c1=O [Zidovudine],,"0.30 (0.17, 0.42)","0.48 (0.20, 0.76)","0.78 (0.05, 1.51)","0.20 (0.16, 0.25)","0.30 (0.21, 0.40)","0.45 (0.22, 0.68)","0.04 (0.03, 0.04)","0.04 (0.03, 0.05)","0.04 (0.03, 0.05)",Synergistic,

# Second part, led by results:
EC50 (HIV-1 LAI [1]) [nM],SMILES,Combination Indices at 50% HIV Inhibition (Confidence Interval) (HIV-1 LAI [2]; [3]),Combination Indices at 75% HIV Inhibition (Confidence Interval) (HIV-1 LAI [2]; [3]),Combination Indices at 90% HIV Inhibition (Confidence Interval) (HIV-1 LAI [2]; [3]),Combination Indices at 50% HIV Inhibition (Confidence Interval) (HIV-1 LAI [2]; [4]),Combination Indices at 75% HIV Inhibition (Confidence Interval) (HIV-1 LAI [2]; [4]),Combination Indices at 90% HIV Inhibition (Confidence Interval) (HIV-1 LAI [2]; [4]),Combination Indices at 50% HIV Inhibition (Confidence Interval) (HIV-1 LAI [2]; [5]),Combination Indices at 75% HIV Inhibition (Confidence Interval) (HIV-1 LAI [2]; [5]),Combination Indices at 90% HIV Inhibition (Confidence Interval) (HIV-1 LAI [2]; [5]),Overall Result of two-drug combination (HIV-1 LAI [2]),Overall Result of two-drug combination (HIV-1 LAI [2]; listed as efavirenz)
35,CC(C)CN(C[C@@H](O)[C@H](Cc1ccccc1)NC(=O)O[C@H]1CCOC1)S(=O)(=O)c1ccc(N)cc1 [Amprenavir],"0.47 (0.33, 0.62)","0.76 (0.44, 1.09)","1.37 (6.46, 2.28)","0.63 (0.45, 0.81)","0.72 (0.44, 1.01)","0.99 (0.38, 1.60)","0.20 (0.12, 0.28)","0.60 (0.28, 0.92)","1.87 (0.24, 3.50)",Additive-,
5,CC(C)c1nc(CN(C)C(=O)N[C@H](C(=O)N[C@@H](Cc2ccccc2)C[C@H](O)[C@H](Cc2ccccc2)NC(=O)OCc2cncs2)C(C)C)cs1 [Ritonavir],"0.25 (0.19, 0.31)","0.38 (0.26, 0.50)","0.58 (0.28, 0.88)","0.16 (0.12, 0.20)","0.25 (0.18, 0.32)","0.40 (0.19, 0.60)","0.40 (0.23, 0.57)","0.66 (0.29, 1.04)","1.11 (0.05, 2.17)",Additive-,
1,CC(C)(C)NC(=O)[C@@H]1CN(Cc2cccnc2)CCN1C[C@@H](O)C[C@@H](Cc1ccccc1)C(=O)N[C@H]1c2ccccc2C[C@H]1O [Indinavir],"0.73 (0.58, 0.88)","0.75 (0.54, 0.97)","0.77 (0.42, 1.12)","0.42 (0.22, 0.63)","0.57 (0.20, 0.95)","0.78 (0.00, 1.64)","0.56 (0.43, 0.69)","0.67 (0.45, 0.89)","0.81 (0.38, 1.23)",Moderate-,
5,Cc1cccc(C)c1OCC(=O)N[C@@H](Cc1ccccc1)[C@@H](O)C[C@H](Cc1ccccc1)NC(=O)[C@H](C(C)C)N1CCCNC1=O [Lopinavir],"0.68 (0.49, 0.87)","0.80 (0.48, 1.11)","0.95 (0.36, 1.55)","0.74 (0.57, 0.92)","0.56 (0.37, 0.74)","0.42 (0.21, 0.64)","0.65 (0.44, 0.86)","0.77 (0.43, 1.11)","0.92 (0.28, 1.57)",Additive-,
0.6,O=C1Nc2ccc(Cl)cc2[C@@](C#CC2CC2)(C(F)(F)F)O1 [Efavirenz],"0.93 (0.74, 1.12)","0.70 (0.51, 0.90)","0.57 (0.32, 0.82)","0.71 (0.58, 0.85)","0.85 (0.62, 1.08)","1.10 (0.64, 1.56)","0.82 (0.62, 1.02)","0.83 (0.55, 1.12)","0.89 (0.41, 1.36)",Additive-,additive to synergistic
